{
  "source": "patent US9174969B2",
  "about": "“Indoline scaffold SHP-2 inhibitors and cancer treatment method” (UNIVERSITY OF SOUTH FLORIDA, priority 2008, dated 2015)",
  "data": [
    {"target": "Shp2 (Homo sapiens (Human), UniProt Q06124)", "sequence (Q06124 whole entry)": "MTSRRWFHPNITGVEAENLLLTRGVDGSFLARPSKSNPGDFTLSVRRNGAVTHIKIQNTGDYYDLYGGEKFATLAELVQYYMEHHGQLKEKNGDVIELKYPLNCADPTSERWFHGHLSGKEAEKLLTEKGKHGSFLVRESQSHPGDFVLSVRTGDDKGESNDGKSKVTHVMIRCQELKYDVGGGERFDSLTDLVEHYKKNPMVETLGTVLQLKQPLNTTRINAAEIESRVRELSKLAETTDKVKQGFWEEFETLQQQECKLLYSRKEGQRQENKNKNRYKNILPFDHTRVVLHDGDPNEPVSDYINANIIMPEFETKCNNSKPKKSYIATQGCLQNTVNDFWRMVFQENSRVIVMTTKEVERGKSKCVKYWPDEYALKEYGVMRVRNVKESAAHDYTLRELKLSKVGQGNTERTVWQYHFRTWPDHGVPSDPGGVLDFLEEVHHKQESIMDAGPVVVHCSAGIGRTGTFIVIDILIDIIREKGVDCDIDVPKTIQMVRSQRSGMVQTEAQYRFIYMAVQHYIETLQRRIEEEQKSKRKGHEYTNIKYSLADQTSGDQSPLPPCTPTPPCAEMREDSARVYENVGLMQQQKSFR", "test": "in vitro phosphotyrosine phosphatase activity (DiFMUP) assay", "format": "biochemical", "conditions": "mean ± spread over n tests", "experimental": "All reagents were purchased from commercial suppliers and used without further purification. Melting points were determined using a Barnstead international melting point apparatus and remain uncorrected. ^1H NMR spectra were recorded on a Varian Mercury 400 MHz spectrometer with CDCl3 or DMSO-d6 as the solvent. ^13C NMR spectra are recorded at 100 MHz. All coupling constants are measured in Hertz (Hz) and the chemical shifts (δH and δC) are quoted in parts per million (ppm) relative to TMS (δ0), which was used as the internal standard. High resolution mass spectroscopy was carried out on an Agilent 6210 LC/MS (ESI-TOF). Microwave reactions were performed in CEM 908005 model and Biotage initiator 8 machines. HPLC analysis was performed using a JASCO HPLC system equipped with a PU-2089 Plus quaternary gradient pump and a UV-2075 Plus UV-VIS detector, using an Alitech Kromasil C-18 column (150×4.6 mm, 5 μm). Thin layer chromatography was performed using silica gel 60 F254 plates (Fisher), with observation under UV when necessary. Anhydrous solvents (acetonitrile, dimethyl formamide, ethanol, isopropanol, methanol and tetrahydrofuran) were used as purchased from Aldrich. HPLC grade solvents (methanol, acetonitrile and water) were purchased from Burdick and Jackson for HPLC and mass analysis.", "units": {"IC50": "µM"}, "values": [
      {"smiles": "O=C(Nc1ccc(Cl)c(Cl)c1)N1CCc2cc(S(=O)(=O)N3CCN(c4cccc(Cl)c4)CC3)ccc21", "note": "[JHE-02-068A, 5-(4-(3-Chlorophenyl)piperazin-1-ylsulfonyl)-N-(3,4-dichlorophenyl)indoline-1-carboxamide]", "IC50": "5.7 ± 2.5"},
      {"smiles": "O=C(Nc1ccccc1)N1CCc2cc(S(=O)(=O)N3CCN(c4cccc(Cl)c4)CC3)ccc21", "note": "[JF033, 5-(4-(3-Chlorophenyl)piperazin-1-ylsulfonyl)-N-phenylindoline-1-carboxamide]", "IC50": "11.7 ± 1.4"},
      {"smiles": "O=C(O)CCC(=O)N1CCc2cc(S(=O)(=O)N3CCN(c4cccc(F)c4)CC3)ccc21", "note": "[XW2-124A, 4-(5-(4-(3-Fluorophenyl)piperazin-1-ylsulfonyl)indolin-1-yl)-4-oxobutanoic acid]", "IC50": "13.2 ± 3.6"},
      {"smiles": "CCCC(=O)N1CCc2cc(S(=O)(=O)N3CCN(c4cccc(Cl)c4)CC3)ccc21", "note": "[JHE-02-033A, 1-(5-(4-(3-Chlorophenyl)piperazin-1-ylsulfonyl)indolin-1-yl)butan-1-one]", "IC50": "7.8 ± 2.1"},
      {"smiles": "O=C(c1cccc(Cl)c1)N1CCc2cc(S(=O)(=O)N3CCN(c4cccc(Cl)c4)CC3)ccc21", "note": "[JF020, (3-Chlorophenyl)(5-(4-(3-chlorophenyl)piperazin-1-ylsulfonyl)indolin-1-yl)methanone]", "IC50": "5.7 ± 3.9"},
      {"smiles": "COC(=O)c1ccccc1NC(=O)N1CCc2cc(S(=O)(=O)N3CCN(c4cccc(Cl)c4)CC3)ccc21", "note": "[JHE-02-015A, Methyl 2-(5-(4-(3-chlorophenyl)piperazin-1-ylsulfonyl)indoline-1-carboxamido)benzoate]", "IC50": "14.3 ± 4.1"},
      {"smiles": "COc1cccc(N2CCN(S(=O)(=O)c3ccc4c(c3)CCN4C(=O)CCC(=O)O)CC2)c1", "note": "[XW2-038F, 4-(5-(4-(3-Methoxyphenyl)piperazin-1-ylsulfonyl)indolin-1-yl)-4-oxobutanoic acid]", "IC50": "4.7 ± 4.4"},
      {"smiles": "Cc1ccc(Cl)cc1N1CCN(S(=O)(=O)c2ccc3c(c2)CCN3C(=O)CCC(=O)O)CC1", "note": "[XW2-125B, 4-(5-(4-(5-Chloro-2-methylphenyl)piperazin-1-ylsulfonyl)indolin-1-yl)-4-oxobutanoic acid]", "IC50": 1.5},
      {"smiles": "O=C(O)CCC(=O)N1CCc2cc(S(=O)(=O)N3CCN(c4ccccc4F)CC3)ccc21", "note": "[XW2-038D, 4-(5-(4-(2-Fluorophenyl)piperazin-1-ylsulfonyl)indolin-1-yl)-4-oxobutanoic acid]", "IC50": "34.6 ± 12.6"},
      {"smiles": "O=C(O)C(O)CC(=O)N1CCc2cc(S(=O)(=O)N3CCN(c4cccc(Cl)c4)CC3)ccc21", "note": "(stereo not drawn) [JHE-02-001, 4-(5-(4-(3-Chlorophenyl)piperazin-1-ylsulfonyl)indolin-1-yl)-2-hydroxy-4-oxobutanoic acid]", "IC50": "1.1 ± 0.3"},
      {"smiles": "O=C(O)CCC(=O)N1CCc2cc(S(=O)(=O)N3CCN(c4cccc(Cl)c4Cl)CC3)ccc21", "note": "[XW2-038G, 4-(5-(4-(2,3-Dichlorophenyl)piperazin-1-ylsulfonyl)indolin-1-yl)-4-oxobutanoic acid]", "IC50": "144 ± 89.5"},
      {"smiles": "CC(C)C(NC(=O)N1CCc2cc(S(=O)(=O)N3CCN(c4cccc(Cl)c4)CC3)ccc21)C(=O)O", "note": "(stereo not drawn) [JHE-02-017C, 2-(5-(4-(3-Chlorophenyl)piperazin-1-ylsulfonyl)indoline-1-carboxamido)-3-methylbutanoic acid]", "IC50": "4.4 ± 1.9"},
      {"smiles": "COc1cccc(NC(=O)N2CCc3cc(S(=O)(=O)N4CCN(c5cccc(Cl)c5)CC4)ccc32)c1", "note": "[JHE-02-032B, 5-(4-(3-Chlorophenyl)piperazin-1-ylsulfonyl)-N-(3-methoxyphenyl)indoline-1-carboxamide]", "IC50": "9.9 ± 3.5"},
      {"smiles": "O=C(O)CCC(=O)N1CCc2cc(S(=O)(=O)N3CCN(c4cccc(C(F)(F)F)c4)CC3)ccc21", "note": "[XW2-031B, 4-oxo-4-(5-(4-(3-(trifluoromethyl)phenyl)piperazin-1-ylsulfonyl)indolin-1-yl)butanoic acid]", "IC50": "11.3 ± 3.1"},
      {"smiles": "O=C(O)C(O)CC(=O)N1CCc2cc(S(=O)(=O)N3CCN(c4cccc(Cl)c4)CC3)ccc21", "note": "(stereo not drawn) [JHE-02-067]", "IC50": "1.3 ± 0.5"},
      {"smiles": "O=C(Nc1ccc(Cl)cc1)N1CCc2cc(S(=O)(=O)N3CCN(c4cccc(Cl)c4)CC3)ccc21", "note": "[JHE-02-065A, N-(4-Chlorophenyl)-5-(4-(3-chlorophenyl)piperazin-1-ylsulfonyl)indoline-1-carboxamide]", "IC50": "19.1 ± 5.1"},
      {"smiles": "O=C(O)CCC(=O)N1CCc2cc(S(=O)(=O)N3CCN(c4ccccc4)CC3)ccc21", "note": "[XW2-038A, 4-oxo-4-(5-(4-Phenylpiperazin-1-ylsulfonyl)indolin-1-yl)butanoic acid]", "IC50": "14.8 ± 7.3"},
      {"smiles": "COc1ccc(C(=O)N2CCc3cc(S(=O)(=O)N4CCN(c5cccc(Cl)c5)CC4)ccc32)cc1", "note": "[JF028, (5-(4-(3-Chlorophenyl)piperazin-1-ylsulfonyl)indolin-1-yl)(4-methoxyphenyl)methanone]", "IC50": "6.3 ± 2.9"},
      {"smiles": "CC1Cc2cc(S(=O)(=O)N3CCN(c4cccc(Cl)c4)CC3)ccc2N1C(=O)CCC(=O)O", "note": "(stereo not drawn) [JHE-02-119, 4-(5-(4-(3-Chlorophenyl)piperazin-1-ylsulfonyl)-2-methylindolin-1-yl)-4-oxobutanoic acid]", "IC50": "2.5 ± 0.5"},
      {"smiles": "O=C(c1ccc(Cl)cc1Cl)N1CCc2cc(S(=O)(=O)N3CCN(c4cccc(Cl)c4)CC3)ccc21", "note": "[JF024, (5-(4-(3-Chlorophenyl)piperazin-1-ylsulfonyl)indolin-1-yl)(2,4-dichlorophenyl)methanone]", "IC50": "7.6 ± 1.3"},
      {"smiles": "Cc1ccc(N2CCN(S(=O)(=O)c3ccc4c(c3)CCN4C(=O)CCC(=O)O)CC2)cc1Cl", "note": "[XW3-006, 4-(5-(4-(3-Chloro-4-methylphenyl)piperazin-1-ylsulfonyl)indolin-1-yl)-4-oxobutanoic acid]", "IC50": "16.6 ± 3.6"},
      {"smiles": "COc1cccc(C(=O)N2CCc3cc(S(=O)(=O)N4CCN(c5cccc(Cl)c5)CC4)ccc32)c1", "note": "[JHE-02-035A, (5-(4-(3-chlorophenyl)piperazin-1-ylsulfonyl)indolin-1-yl)(3-methoxyphenyl)methanone]", "IC50": "8.1 ± 0.8"},
      {"smiles": "O=C(c1ccc(Cl)cc1)N1CCc2cc(S(=O)(=O)N3CCN(c4cccc(Cl)c4)CC3)ccc21", "note": "[JF021, (4-Chlorophenyl)(5-(4-(3-chlorophenyl)piperazin-1-ylsulfonyl)indolin-1-yl)methanone]", "IC50": "10.4 ± 2"},
      {"smiles": "O=C(C1CCCC1)N1CCc2cc(S(=O)(=O)N3CCN(c4cccc(Cl)c4)CC3)ccc21", "note": "[JF026, (5-(4-(3-Chlorophenyl)piperazin-1-ylsulfonyl)indolin-1-yl)(cyclopentyl)methanone]", "IC50": "6.9 ± 2.2"},
      {"smiles": "O=C(O)CC[C@H](NC(=O)N1CCc2cc(S(=O)(=O)N3CCN(c4cccc(Cl)c4)CC3)ccc21)C(=O)O", "note": "[JHE-02-052, (S)-2-(5-(4-(3-Chlorophenyl)piperazin-1-ylsulfonyl)indoline-1-carboxamido)pentanedioic acid]", "IC50": "37.6 ± 13.8"},
      {"smiles": "O=C(Nc1ccc(F)cc1)N1CCc2cc(S(=O)(=O)N3CCN(c4cccc(Cl)c4)CC3)ccc21", "note": "[JF038, 5-(4-(3-Chlorophenyl)piperazin-1-ylsulfonyl)-N-(4-fluorophenyl)indoline-1-carboxamide]", "IC50": "12.6 ± 5.4"},
      {"smiles": "O=C(Nc1cccc(Cl)c1)N1CCc2cc(S(=O)(=O)N3CCN(c4cccc(Cl)c4)CC3)ccc21", "note": "[JHE-02-032A, N-(3-Chlorophenyl)-5-(4-(3-chlorophenyl)piperazin-1-ylsulfonyl)indoline-1-carboxamide]", "IC50": "8.3 ± 3.4"},
      {"smiles": "CCOC(=O)CNC(=O)N1CCc2cc(S(=O)(=O)N3CCN(c4cccc(Cl)c4)CC3)ccc21", "note": "[JHE-01-134A, ethyl 2-(5-(4-(3-Chlorophenyl)piperazin-1-ylsulfonyl)indoline-1-carboxamido)acetate]", "IC50": 60.3},
      {"smiles": "O=C(O)/C=C\\C(=O)N1CCc2cc(S(=O)(=O)N3CCN(c4cccc(Cl)c4)CC3)ccc21", "note": "[JHE-01-129A, (Z)-4-(5-(4-(3-Chlorophenyl)piperazin-1-ylsulfonyl)indolin-1-yl)-4-oxobut-2-enoic acid]", "IC50": "2.8 ± 0.7"},
      {"smiles": "CCOC(=O)C(Cc1ccccc1)NC(=O)N1CCc2cc(S(=O)(=O)N3CCN(c4cccc(Cl)c4)CC3)ccc21", "note": "(stereo not drawn) [JHE-02-014, Ethyl 2-(5-(4-(3-chlorophenyl)piperazin-1-ylsulfonyl)indoline-1-carboxamido)-3-phenylpropanoate]", "IC50": "6.9 ± 4.2"},
      {"smiles": "O=C(c1ccccc1)N1CCc2cc(S(=O)(=O)N3CCN(c4cccc(Cl)c4)CC3)ccc21", "note": "[JF022, (5-(4-(3-Chlorophenyl)piperazin-1-ylsulfonyl)indolin-1-yl)(phenyl)methanone]", "IC50": "8.4 ± 2.3"},
      {"smiles": "O=C(Cc1ccccc1)N1CCc2cc(S(=O)(=O)N3CCN(c4cccc(Cl)c4)CC3)ccc21", "note": "[JF031, 1-(5-(4-(3-Chlorophenyl)piperazin-1-ylsulfonyl)indolin-1-yl)-2-phenyleth anone]", "IC50": "22.8 ± 4.5"},
      {"smiles": "O=C(O)CCC(=O)N1CCc2cc(S(=O)(=O)N3CCN(c4ccc(Cl)c(Cl)c4)CC3)ccc21", "note": "[XW2-036, 4-(5-(4-(3,4-Dichlorophenyl)piperazin-1-ylsulfonyl)indolin-1-yl)-4-oxobutanoic acid]", "IC50": "4.6 ± 2.4"},
      {"smiles": "O=C(Cc1ccc(Cl)cc1)N1CCc2cc(S(=O)(=O)N3CCN(c4cccc(Cl)c4)CC3)ccc21", "note": "[JHE-02-063B, 2-(4-Chlorophenyl)-1-(5-(4-(3-chlorophenyl)piperazin-1-ylsulfonyl)indolin-1-yl)ethanone]", "IC50": "8 ± 1.9"},
      {"smiles": "O=C(Nc1ccccc1F)N1CCc2cc(S(=O)(=O)N3CCN(c4cccc(Cl)c4)CC3)ccc21", "note": "[JF035, 5-(4-(3-Chlorophenyl)piperazin-1-ylsulfonyl)-N-(2-fluorophenyl)indoline-1-carboxamide]", "IC50": "12.2 ± 2"},
      {"smiles": "CCOC(=O)C(NC(=O)N1CCc2cc(S(=O)(=O)N3CCN(c4cccc(Cl)c4)CC3)ccc21)C(C)C", "note": "(stereo not drawn) [JHE-02-010C, Ethyl 2-(5-(4-(3-chlorophenyl)piperazin-1-ylsulfonyl)indoline-1-carboxamido)-3-methylbutanoate]", "IC50": "7.7 ± 2.4"}
    ]}
  ]
}
